From ChEMBL document CHEMBL1152388, “Identification of substituted pyrazolo[1,5-a]quinazolin-5(4H)-one as potent poly(ADP-ribose)polymerase-1 (PARP-1) inhibitors” (Bioorg Med Chem Lett, 2009)

Target: Poly [ADP-ribose] polymerase 1 (Homo sapiens, UniProt P09874)
Experiment: Inhibition of PARP1 by scintillation proximity assay

Poly [ADP-ribose] polymerase 1, sequence (P09874 whole entry): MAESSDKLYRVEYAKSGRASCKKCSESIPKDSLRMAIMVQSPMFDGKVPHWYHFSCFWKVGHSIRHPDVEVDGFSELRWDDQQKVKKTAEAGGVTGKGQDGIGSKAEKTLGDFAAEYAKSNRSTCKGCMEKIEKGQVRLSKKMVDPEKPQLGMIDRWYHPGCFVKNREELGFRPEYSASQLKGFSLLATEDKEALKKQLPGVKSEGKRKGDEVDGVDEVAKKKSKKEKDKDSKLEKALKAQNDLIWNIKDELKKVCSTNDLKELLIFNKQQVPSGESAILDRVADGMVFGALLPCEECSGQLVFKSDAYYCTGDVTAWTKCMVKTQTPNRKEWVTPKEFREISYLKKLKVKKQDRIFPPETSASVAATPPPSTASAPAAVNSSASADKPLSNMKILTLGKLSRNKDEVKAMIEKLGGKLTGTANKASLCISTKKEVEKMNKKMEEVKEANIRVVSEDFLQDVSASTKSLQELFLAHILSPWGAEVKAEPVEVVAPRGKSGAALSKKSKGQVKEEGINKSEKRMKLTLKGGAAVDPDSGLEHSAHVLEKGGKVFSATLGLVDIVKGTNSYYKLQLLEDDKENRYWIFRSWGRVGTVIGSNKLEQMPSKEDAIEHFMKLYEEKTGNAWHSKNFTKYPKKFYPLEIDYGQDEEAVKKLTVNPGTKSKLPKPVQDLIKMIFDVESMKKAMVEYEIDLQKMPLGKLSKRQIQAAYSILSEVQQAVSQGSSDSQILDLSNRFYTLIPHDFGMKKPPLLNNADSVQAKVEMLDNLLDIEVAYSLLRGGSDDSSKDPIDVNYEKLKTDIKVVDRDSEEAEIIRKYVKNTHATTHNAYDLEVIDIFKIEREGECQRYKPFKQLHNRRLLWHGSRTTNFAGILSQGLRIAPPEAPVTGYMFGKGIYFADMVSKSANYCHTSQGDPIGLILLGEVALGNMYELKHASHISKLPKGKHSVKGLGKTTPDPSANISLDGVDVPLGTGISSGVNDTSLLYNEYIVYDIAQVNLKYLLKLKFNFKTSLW

Row | IC50 | SMILES
1 | > 1000 nM | CC(C)(C)c1ccc(-c2cc3[nH]c(=O)c4ccccc4n3n2)cc1
2 | 600 nM | O=c1[nH]c2cc(-c3cccc(Br)c3)nn2c2ccccc12
3 | 2500 nM | O=C(c1ccc(-c2cc3[nH]c(=O)c4ccccc4n3n2)cc1)N1CCN2CCC[C@H]2C1
4 | 200 nM | COc1ccc(-c2cc3[nH]c(=O)c4ccccc4n3n2)c(OC)c1
5 | 500 nM | Cc1ccc(-c2cc3[nH]c(=O)c4ccccc4n3n2)cc1
6 | > 1000 nM | CN1CCCN(C(=O)c2cnn3c2[nH]c(=O)c2ccccc23)CC1
7 | 1000 nM | CN1CCN(C(=O)c2cccc(-c3cc4[nH]c(=O)c5ccccc5n4n3)c2)CC1
8 | 500 nM | CCc1ccc(-c2cc3[nH]c(=O)c4ccccc4n3n2)cc1
9 | > 1000 nM | CCCc1ccc(-c2cc3[nH]c(=O)c4ccccc4n3n2)cc1
10 | 100 nM | O=c1[nH]c2cc(-c3ccccc3)nn2c2ccccc12
11 | 500 nM | O=c1[nH]c2cc(-c3ccc(Cl)cc3)nn2c2ccccc12
12 | 400 nM | CC(C)Cc1cc2[nH]c(=O)c3ccccc3n2n1
13 | > 1000 nM | CN1CCN(C(=O)c2cnn3c2[nH]c(=O)c2ccccc23)CC1
14 | 100 nM | CN(C)CCN(C)C(=O)c1cc2[nH]c(=O)c3ccccc3n2n1
15 | 600 nM | O=C(c1cc2[nH]c(=O)c3ccccc3n2n1)N1CCN2CCC[C@H]2C1
16 | 800 nM | CN(C)CCN(C)C(=O)c1cccc(-c2cc3[nH]c(=O)c4ccccc4n3n2)c1

Row | IC50 | SMILES
17 | > 1000 nM | O=C(c1cnn2c1[nH]c(=O)c1ccccc12)N1CCCNCC1
18 | 1100 nM | O=C(c1cc2[nH]c(=O)c3ccccc3n2n1)N1CCC(CN2CCOCC2)CC1
19 | > 1000 nM | O=c1[nH]c2cc(-c3cccc(F)c3)nn2c2ccccc12
20 | 500 nM | O=c1[nH]c2cc(-c3cccc(Cl)c3)nn2c2ccccc12
21 | > 1000 nM | N#Cc1ccc(-c2cc3[nH]c(=O)c4ccccc4n3n2)cc1
22 | > 1000 nM | O=C(NCCN1CCOCC1)c1cnn2c1[nH]c(=O)c1ccccc12
23 | > 1000 nM | O=c1[nH]c2cc(-c3ccc(OC(F)(F)F)cc3)nn2c2ccccc12
24 | > 1000 nM | O=c1[nH]c2cc(-c3ccc(F)cc3)nn2c2ccccc12
25 | 200 nM | COc1ccc(-c2cc3[nH]c(=O)c4ccccc4n3n2)cc1OC
26 | 1400 nM | CN1CCN(C(=O)c2ccc(-c3cc4[nH]c(=O)c5ccccc5n4n3)cc2)CC1
27 | 1300 nM | CN(C)CCN(C)C(=O)c1ccc(-c2cc3[nH]c(=O)c4ccccc4n3n2)cc1
28 | 300 nM | Cc1cc2[nH]c(=O)c3ccccc3n2n1
29 | 100 nM | COc1cccc(-c2cc3[nH]c(=O)c4ccccc4n3n2)c1OC
30 | 700 nM | O=c1[nH]c2cc(-c3ccc(Br)cc3)nn2c2ccccc12
31 | 30 nM | O=C(c1cc2[nH]c(=O)c3ccccc3n2n1)N1CCCNCC1

Row | SMILES | IC50
32 | COc1cc(-c2cc3[nH]c(=O)c4ccccc4n3n2)cc(OC)c1OC | 30 nM
33 | O=C(NCCC1(N2CCOCC2)CCCC1)c1cc2[nH]c(=O)c3ccccc3n2n1 | 90 nM
34 | O=c1[nH]c2cc(C3CCCCC3)nn2c2ccccc12 | 200 nM
35 | O=C(NCCCN1CCOCC1)c1cc2[nH]c(=O)c3ccccc3n2n1 | 140 nM
36 | O=C(c1cccc(-c2cc3[nH]c(=O)c4ccccc4n3n2)c1)N1CCN2CCC[C@H]2C1 | 500 nM
37 | CN1CCC(CNC(=O)c2cc3[nH]c(=O)c4ccccc4n3n2)C1 (stereo not given) | 80 nM
38 | O=C(NCCN1CCOCC1)c1cc2[nH]c(=O)c3ccccc3n2n1 | 140 nM
39 | O=c1[nH]c2cc(-c3cccs3)nn2c2ccccc12 | 150 nM
40 | CN1CCN(C(=O)c2cc3[nH]c(=O)c4ccccc4n3n2)CC1 | 300 nM
41 | O=c1[nH]c2cc(-c3ccco3)nn2c2ccccc12 | 200 nM
42 | O=C(c1cc2[nH]c(=O)c3ccccc3n2n1)N1CCN(CC2CC2)CC1 | 300 nM
43 | CN1CCC(CNC(=O)c2cc3[nH]c(=O)c4ccccc4n3n2)CC1 | 70 nM
44 | CN1CCCN(C(=O)c2cc3[nH]c(=O)c4ccccc4n3n2)CC1 | 10 nM

Tested on: HeLa
Experiment: Inhibition of PAR polymer formation in H2O2-stimulated human HeLa cells
Assay type: functional, cell-based

Row | SMILES | EC50
45 | CN1CCCN(C(=O)c2cc3[nH]c(=O)c4ccccc4n3n2)CC1 | 3900 nM
